Laboratory results published in BindingDB's records for doi:10.1016/j.ejphar.2004.03.050 (Memorial Sloan-Kettering Cancer Center, 2004).
Values joined by “and” are separate entries in the source; they are usually repeats but may differ in a detail not shown here. Equal entries are not always repeated.

Key:
[1] = target: Mu-type opioid receptor (Bos taurus, UniProt P79350)
[2] = target: Opioid receptor delta 1 (Bos taurus, UniProt F1N083)
Sequence of Opioid receptor delta 1 (F1N083 whole entry): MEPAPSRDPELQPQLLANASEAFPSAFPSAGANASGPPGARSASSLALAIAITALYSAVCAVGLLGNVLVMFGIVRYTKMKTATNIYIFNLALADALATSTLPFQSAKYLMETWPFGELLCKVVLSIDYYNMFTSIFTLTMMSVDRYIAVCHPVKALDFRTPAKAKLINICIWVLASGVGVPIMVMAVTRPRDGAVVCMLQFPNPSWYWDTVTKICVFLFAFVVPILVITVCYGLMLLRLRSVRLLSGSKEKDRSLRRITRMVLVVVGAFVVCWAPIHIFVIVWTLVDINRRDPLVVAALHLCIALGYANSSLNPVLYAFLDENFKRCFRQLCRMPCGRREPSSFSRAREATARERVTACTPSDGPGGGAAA

Sequence of Mu-type opioid receptor (P79350 whole entry): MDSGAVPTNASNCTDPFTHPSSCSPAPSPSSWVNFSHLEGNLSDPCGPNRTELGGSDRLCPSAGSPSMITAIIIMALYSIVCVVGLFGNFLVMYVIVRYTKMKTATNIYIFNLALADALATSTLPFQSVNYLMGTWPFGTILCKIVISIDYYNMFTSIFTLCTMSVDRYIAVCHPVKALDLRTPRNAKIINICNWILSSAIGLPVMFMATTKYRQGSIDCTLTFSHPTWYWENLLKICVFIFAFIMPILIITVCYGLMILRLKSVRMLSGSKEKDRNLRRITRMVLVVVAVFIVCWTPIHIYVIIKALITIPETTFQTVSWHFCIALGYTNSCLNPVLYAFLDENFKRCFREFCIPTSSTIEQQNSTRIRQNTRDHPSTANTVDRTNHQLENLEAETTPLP

For `CC(=O)OC1CCC2C3Cc4ccc(O)c5c4C2(CCN3C)C1O5` (configuration not stated) [6-AcDHM], the Ki [1] was 1.83 nM and 12.3 nM.

`CN1CCC23c4c5ccc(O)c4OC2C(O)CCC3C1C5` (configuration not stated) [CAS_509-60-4] was tested, and the Ki [2] was 1000 nM.
